Reference: the supplement of paper PMC11061612

Key:
[1] = tested on: NCI-H1092 (Small Cell Lung Carcinoma); test: combination Emax (second highest fraction inhibited in the dose matrix, 72 h); higher = more inhibition; extreme values may be limits of the assay
In short: (§1)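 Bliss excess equals the observed combination effect minus the expected value EA + EB − EA·EB, where EA and EB are the effects of each agent alone. Combination Emax is the second-highest inhibition within the matrix. Inhibition was scaled from CellTiter-Glo 2.0 luminescence, with 0 set by vehicle wells and 1 by blank wells, after 72 hours of two-drug dosing of cells plated in 1536-well plates.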

[2] = tested on: DU-145 (Prostate Carcinoma); test: as above
In short: as §1

[3] = tested on: G-401 (Other Solid Carcinomas); test: as above
In short: as §1

[4] = tested on: Ca-Ski (Cervical Carcinoma); test: as above
In short: as §1

[5] = tested on: NCI-H1838 (Lung Adenocarcinoma); test: as above
In short: as §1

[6] = tested on: OE33 (Esophageal Adenocarcinoma); test: as above
In short: as §1

[7] = tested on: SNU-387 (Hepatocellular Carcinoma); test: as above
In short: as §1

[8] = tested on: NCI-H522 (Lung Adenocarcinoma); test: as above
In short: as §1

[9] = tested on: EFO-21 (Ovarian Carcinoma); test: as above
In short: as §1

[10] = tested on: SW982 (Other Solid Carcinomas); test: as above
In short: as §1

[11] = tested on: HCC1500 (Breast Carcinoma); test: as above
In short: as §1

[12] = tested on: NCI-H2122 (Lung Adenocarcinoma); test: as above
In short: as §1

[13] = tested on: NCI-H1355 (Lung Adenocarcinoma); test: as above
In short: as §1

[14] = tested on: COLO-668 (Small Cell Lung Carcinoma); test: as above
In short: as §1

[15] = tested on: HCC1937 (Breast Carcinoma); test: as above
In short: as §1

[16] = tested on: EJM (Plasma Cell Myeloma); test: as above
In short: as §1

SK-N-AS (Neuroblastoma) = test: as above
In short: as §1

[17] = tested on: SW872 (Other Solid Carcinomas); test: Bliss excess, mean over the matrix (fraction); higher = more synergy
In short: as §1

[18] = tested on: COLO-668 (Small Cell Lung Carcinoma); test: as above
In short: as §1

SMILES	combination Emax [1]	combination Emax [2]	combination Emax [3]	combination Emax [4]	combination Emax [5]	combination Emax [6]	combination Emax [7]	combination Emax [8]	combination Emax [9]	combination Emax [10]	combination Emax [11]	combination Emax [12]	combination Emax [13]	combination Emax [14]	combination Emax [15]	combination Emax [16]	combination Emax (SK-N-AS (Neuroblastoma))	Bliss excess [17]	Bliss excess [18]
COc1cccc(OCCCN)c1-c1cc(Nc2cnc(C#N)cn2)n[nH]1 [Prexasertib] + CCc1c2c(nc3ccc(O)cc13)-c1cc3c(c(=O)n1C2)COC(=O)[C@]3(O)CC [SN-38] (first compound max 1 µM, 7x7, partner max 0.3 µM)	0.899	0.807	0.929	0.983	0.946	0.811	0.795	0.8	0.671	0.796	0.934	0.984	0.756	0.973	0.92	0.952	0.997	-0.015	-0.0788
COc1cccc2c1C(=O)c1c(O)c3c(c(O)c1C2=O)C[C@@](O)(C(=O)CO)C[C@@H]3O[C@H]1C[C@H](N)[C@H](O)[C@H](C)O1 [Doxorubicin] + Cc1cc2ncnn2cc1Nc1ncc2c(n1)n(C1CCOCC1)c(=O)n2C [AZD7648] (first compound max 1 µM, 7x7, partner max 10 µM)	0.479	0.649	0.938	0.913	0.559	0.526	0.65	0.697	0.482	0.884	0.887	0.284	0.624	0.93	0.439	0.903	0.723	0.0299	0.0633
COc1cccc(OCCCN)c1-c1cc(Nc2cnc(C#N)cn2)n[nH]1 [Prexasertib] + CN(C)CCCOc1ccc(-c2ccc3ncc4c(c3c2)n(C2CCOCC2)c(=O)n4C)cn1 [AZD0156] (first compound max 1 µM, 7x7, partner max 1 µM)	0.74	0.624	0.626	0.741	0.598	0.826	0.531	0.385	0.731	0.759	0.348	0.975	0.709	0.758	0.537	0.93	1	-0.0035	-0.0161
CCc1c2c(nc3ccc(O)cc13)-c1cc3c(c(=O)n1C2)COC(=O)[C@]3(O)CC [SN-38] + O=C(c1cc(Cc2n[nH]c(=O)c3ccccc23)ccc1F)N1CCN(C(=O)C2CC2)CC1 [Olaparib] (first compound max 0.3 µM, 7x7, partner max 10 µM)	0.54	0.813		0.997		0.587	0.146	0.389	0.586	0.789	0.873		0.366	1		0.944	0.76	0.0634	0.0738
CC1(C)CCC(CN2CCN(c3ccc(C(=O)NS(=O)(=O)c4ccc(NCC5CCOCC5)c([N+](=O)[O-])c4)c(Oc4cnc5[nH]ccc5c4)c3)CC2)=C(c2ccc(Cl)cc2)C1 [Venetoclax] + C[C@@H]1COCCN1C2=NC(=NC(=C2)C3(CC3)[S@](=N)(=O)C)C4=C5C=CNC5=NC=C4 [AZD6738] (first compound max 1 µM, 7x7, partner max 10 µM)	0.458	0.537	0.703	0.581	0.6	0.773	0.588	0.161	0.444	0.676	0.855	0.947	0.696	0.877	0.587	0.869	0.896	0.0001	0.032
CC1(C)CCC(CN2CCN(c3ccc(C(=O)NS(=O)(=O)c4ccc(NCC5CCOCC5)c([N+](=O)[O-])c4)c(Oc4cnc5[nH]ccc5c4)c3)CC2)=C(c2ccc(Cl)cc2)C1 [Venetoclax] + Cn1cnc2c(F)c(Nc3ccc(Br)cc3Cl)c(C(=O)NOCCO)cc21 [Selumetinib] (first compound max 1 µM, 7x7, partner max 3 µM)	0.253	0.184	0.33	0.219	0.165	0.174	0.295	0.0772	0.264	0.242	0.612	0.679	0.273	0.787	0.264	0.0906	0.647	-0.0158	0.116
CC1(C)CCC(CN2CCN(c3ccc(C(=O)NS(=O)(=O)c4ccc(NCC5CCOCC5)c([N+](=O)[O-])c4)c(Oc4cnc5[nH]ccc5c4)c3)CC2)=C(c2ccc(Cl)cc2)C1 [Venetoclax] + C=CCn1c(=O)c2cnc(Nc3ccc(N4CCN(C)CC4)cc3)nc2n1-c1cccc(C(C)(C)O)n1 [AZD1775] (first compound max 1 µM, partner max 1 µM)	0.696	0.349	0.83	0.836	0.421	0.623	0.702	0.289	0.581	0.742	0.781	0.98	0.607	0.943	0.406	0.928	0.953	0.005	0.136
CC1(C)CCC(CN2CCN(c3ccc(C(=O)NS(=O)(=O)c4ccc(NCC5CCOCC5)c([N+](=O)[O-])c4)c(Oc4cnc5[nH]ccc5c4)c3)CC2)=C(c2ccc(Cl)cc2)C1 [Venetoclax] + COc1cc(Nc2ncc3c(n2)-c2ccc(Cl)cc2C(c2c(F)cccc2OC)=NC3)ccc1C(=O)O [Alisertib] (first compound max 1 µM, 7x7, partner max 10 µM)	0.684	0.268	0.657	0.64	0.437	0.314	0.191	0.277	0.359	0.606	0.805	0.939	0.473	0.474	0.387	0.146	0.818	0.0428	0.066
CC1(C)CCC(CN2CCN(c3ccc(C(=O)NS(=O)(=O)c4ccc(NCC5CCOCC5)c([N+](=O)[O-])c4)c(Oc4cnc5[nH]ccc5c4)c3)CC2)=C(c2ccc(Cl)cc2)C1 [Venetoclax] + CN(C)CCCOc1ccc(-c2ccc3ncc4c(c3c2)n(C2CCOCC2)c(=O)n4C)cn1 [AZD0156] (first compound max 1 µM, 7x7, partner max 1 µM)	0.252	0.0977	0.35	0.369	0.303	0.219	0.201	0.141	0.29	0.2	0.864	0.212	0.296	0.452	0.283	0.159	0.17	0.0025	-0.0022
COc1cccc(OCCCN)c1-c1cc(Nc2cnc(C#N)cn2)n[nH]1 [Prexasertib] + Cc1cc2ncnn2cc1Nc1ncc2c(n1)n(C1CCOCC1)c(=O)n2C [AZD7648] (first compound max 1 µM, 7x7, partner max 10 µM)	0.707	0.649	0.588	0.794	0.54	0.823	0.552	0.385	0.656	0.774	0.334	0.984	0.714	0.786	0.537	0.941	0.984	0.0191	-0.0459
COc1cccc(OCCCN)c1-c1cc(Nc2cnc(C#N)cn2)n[nH]1 [Prexasertib] + O=C(c1cc(Cc2n[nH]c(=O)c3ccccc23)ccc1F)N1CCN(C(=O)C2CC2)CC1 [Olaparib] (first compound max 1 µM, 7x7, partner max 10 µM)	0.67	0.603	0.533	0.787	0.46	0.691	0.542	0.418	0.61	0.767	0.286	1	0.746	0.736	0.503	0.969	0.995	-0.018	-0.0759
COc1cccc(OCCCN)c1-c1cc(Nc2cnc(C#N)cn2)n[nH]1 [Prexasertib] + C[C@@H]1COCCN1C2=NC(=NC(=C2)C3(CC3)[S@](=N)(=O)C)C4=C5C=CNC5=NC=C4 [AZD6738] (first compound max 1 µM, 7x7, partner max 10 µM)	0.698	0.666	0.565	0.728	0.689	0.858	0.537	0.388	0.638	0.723	0.383	0.99	0.74	0.746	0.537	0.947	0.976	0.01	0.0269
COc1cccc(OCCCN)c1-c1cc(Nc2cnc(C#N)cn2)n[nH]1 [Prexasertib] + C=CCn1c(=O)c2cnc(Nc3ccc(N4CCN(C)CC4)cc3)nc2n1-c1cccc(C(C)(C)O)n1 [AZD1775] (first compound max 1 µM, partner max 1 µM)	0.756	0.691	0.905	0.874	0.704	0.829	0.729	0.676	0.742	0.825	0.541	0.984	0.756	0.881	0.584	0.954	1	0.144	0.0952
